“Also recorded” adds a separate entry of the source. Where two headings read alike, the source gives them in different places.
Experiments:
Assay type in all cases: cell-based
[1] = tested on: slowly activating cardiac delayed rectifier potassium current (IKs); experiment: Whole-cell voltage-clamp of IKs in guinea pig ventricular myocytes; settings: 10 nM Iso alone; 0.5 s pulses
Source text: (§1) Isolation of guinea pig ventricular myocytes.
(§2) Voltage-clamp of guinea pig ventricular myocytes. […] Pipettes were made from square bore (1.0 mm, o.d.) borosilicate capillary tubing (Glass Co. of America, Bargaintown, N. J.). […] (average 5.5±0.3 M.OMEGA.). Series resistance was compensated 40-70%. Currents were low-pass filtered (-3 dB at 0.2 kHz) before digitization at 1 kHz. […] Cells were voltage clamped at a holding potential (Vh) of -50 mV to inactivate INa. Time-dependent IKs amplitude was measured as the difference from the initial instantaneous current, following the settling of the capacity transient, to the final current level at the end of a depolarizing pulse. Tail current amplitude, IKtail, was measured as the difference from the holding current level to the peak tail current amplitude upon return to Vh. IKtail was normalized to the maximum measured amplitude (IKtail-max) following 7.5 s pulses. Averaged data was fit to a Boltzmann distribution of the form: IKtail /IKtail-max =1/(1+exp[(V1/2 -Vt)/k]) with a nonlinear least squares fitting routine (Origin, Microcal Software, Northampton, Mass.) to estimate the half-point (V1/2) and slope factor (k) for this relationship. The time courses of IKs activation and deactivation were fit with a double exponential relationship of the form: It =A0 +A1 e^-t/t 1+A2 e^-t/t 2 using a Chebeshev non-iterative fitting technique (pCLAMP, Axon Instruments, Foster City, Calif.).
(§3) Solutions. Compounds were dissolved in dimethyl sulfoxide (DMSO) at a stock concentration of 1 or 10 mM and diluted directly into test solutions. Serial dilutions were used to achieve the final test concentrations. […] Nisoldipine was prepared as a 4 mM stock solution in DMSO and diluted as needed.
(§4) Statistics. Data are expressed as mean ± SEM (N=number of cells). Concentration-dependent changes in AP parameters and individual ionic currents were assessed by repeated-measures analysis of variance (ANOVA). Post-Hoc comparison of the treatment to the control means were made with Dunnett's t-test to determine significant changes between the control and test group means. Statistical comparisons for the time constants of IKs activation and deactivation were made using a paired t-test. A one-tailed probability (p)<0.05 was considered significant.

[2] = tested on: guinea pig isolated ventricular myocytes; experiment: Action potential studies in guinea pig isolated ventricular myocytes
Source text: Isolation of guinea pig ventricular myocytes. Guinea pig ventricular myocytes were isolated as described (Salata J J, Jurkiewicz N K, Wallace A A, Stupienski R F III, Guinosso P J Jr and Lynch J J Jr. (1995). Cardiac electrophysiologic actions of the histamine H1 -receptor antagonists astemizole and terfenadine compared with chlorpheniramine and pyrilamine. Circ Res 76: 110-119.). After isolation, the cells were stored in HEPES-buffered saline (HBS) containing (mM): 132 NaCl, 4 KCl, 1.8 CaCl2, 1.2 MgCl2, 10 HEPES (formal name N-2-Hydoxyethylpiperazine-N-2-ethanesulfonic acid), 10 glucose, pH=7.2, at 24-26° C. until studied, usually within 8 hours after isolation.
Action potential studies. Transmembrane potentials were recorded using conventional microelectrodes filled with 3 M KCl (tip resistances 30-50 M.OMEGA.) using an Axoclamp 2B amplifier (Axon Instruments; Foster City, Calif.) as described (Fermini B, Jurkiewicz N K, Jow B, Guinosso P J Jr, Baskin E P, Lynch J J Jr and Salata J J. (1995). Use-dependent effects of the Class III antiarrhythmic agent NE-10064 (azimilide) on cardiac repolarization: Block of delayed rectifier potassium and L-type calcium currents. J Cardiovasc Pharmacol 26: 259-271.). Cells were superfused with HBS maintained at 37° C. at a rate of 2 ml/min. APs were evoked with brief current pulses (1 ms, 1.2 times threshold) delivered at a frequency of 1 Hz through the recording electrode using an active bridge circuit. Only cells showing normal AP configurations and resting membrane potentials equal to or more negative than -85 mV were used in this study. APs were studied after a ≥5 min control period, and after ≥5 min of superfusion with each concentration of drug. After reaching a steady state effect under each condition, 20 individual APs were sampled and digitally averaged. The amplitude at 50 ms (APA50 ms) and duration at 90% repolarization (APD90) were measured from the digitally averaged records. Concentration-response relationships were determined by measuring APs or currents in each cell under control conditions and during superfusion with successively increasing concentrations of a given drug.
(§5) Solutions. Compounds were dissolved in dimethyl sulfoxide (DMSO) at a stock concentration of 1 or 10 mM and diluted directly into test solutions. Serial dilutions were used to achieve the final test concentrations. DMSO at the concentrations used had no significant effect on any of the parameters measured in these studies. Nisoldipine was prepared as a 4 mM stock solution in DMSO and diluted as needed.
as §4

[3] = molecular target: T1, slowly activating cardiac delayed rectifier potassium current (IKs) (Cavia porcellus, UniProt O70344); experiment: Whole-cell voltage-clamp of IKs in guinea pig ventricular myocytes; settings: for V1/2 of IKs activation (isochronal, 7.5 s pulses): control 19.2±1.6 mV
T1 construct: Guinea pig ventricular myocytes were isolated as described; endogenous in cells; host or cells: isolated guinea pig ventricular myocytes
Source text: as §1, §2, §3, §4

[4] = molecular target: T2, human KvLQT1 channels (Homo sapiens, UniProt P51787); experiment: Two-microelectrode voltage clamp of cloned KvLQT1 channels expressed in Xenopus oocytes; settings: 1 μM
T2 construct: homotetramer
T2 sequence (P51787 whole entry): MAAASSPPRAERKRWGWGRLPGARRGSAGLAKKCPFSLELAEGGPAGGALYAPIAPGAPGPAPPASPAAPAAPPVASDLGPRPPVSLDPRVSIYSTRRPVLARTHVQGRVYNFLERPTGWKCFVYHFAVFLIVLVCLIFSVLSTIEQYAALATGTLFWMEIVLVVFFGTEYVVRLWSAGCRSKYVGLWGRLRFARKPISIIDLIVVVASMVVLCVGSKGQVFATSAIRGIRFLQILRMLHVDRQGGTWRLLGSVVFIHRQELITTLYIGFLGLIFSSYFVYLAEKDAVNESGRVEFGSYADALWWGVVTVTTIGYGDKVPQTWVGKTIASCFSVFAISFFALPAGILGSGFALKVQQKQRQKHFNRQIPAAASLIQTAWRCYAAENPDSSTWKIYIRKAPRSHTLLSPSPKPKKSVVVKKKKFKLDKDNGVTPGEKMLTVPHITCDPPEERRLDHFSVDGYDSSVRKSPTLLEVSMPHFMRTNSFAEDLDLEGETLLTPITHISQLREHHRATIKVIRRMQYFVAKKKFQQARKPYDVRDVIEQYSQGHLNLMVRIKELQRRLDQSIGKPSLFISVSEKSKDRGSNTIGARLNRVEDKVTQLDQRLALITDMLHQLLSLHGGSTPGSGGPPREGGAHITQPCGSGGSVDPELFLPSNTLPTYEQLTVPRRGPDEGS
Description: cRNA injection and voltage-clamp of oocytes. The isolation and maintenance of Xenopus oocytes, in vitro transcription of KvLQT1 complementary RNA (cRNA) and its injection into oocytes were performed as described previously (Sanguinetti M C, Curran M E, Zou A, Shen J, Spector P S, Atkinson D L and Keating M T. (1996b). Coassembly of KvLQT1 and minK (IsK) proteins form cardiac IKs potassium channel. Nature 384: 80-83.; Sanguinetti M C, Jiang C, Curran M E and Keating M T. (1995). A mechanistic link between an inherited and an acquired cardiac arrhythmia: HERG encodes the IKr potassium channel. Cell 81: 299-307.). Stage V and VI oocytes were injected with 11.5 ng of KvLQT1 cRNA (46 nL of a 250 ng/μL solution) Currents were recorded 2 to 4 days later using standard two-microelectrode voltage clamp techniques and a Dagan TEV-200 amplifier. Oocytes were bathed at room temperature (22-25° C.) in a solution containing (mM): 94 NaCl, 2 KCl, 2 MgCl2, 0.1 CaCl2, 5 HEPES; pH 7.6.
as §5

[5] = 10 μM, read-out: Agonist Effect - % Increase in IKs, Vt +50 mV
[6] = 1 μM, read-out: Agonist Effect - % Increase in IKs, Vt +50 mV
[7] = 10 μM, read-out: Agonist Effect - % Increase in IKs, Vt -10 mV

In the case of `CC(C)NCC(O)c1ccc(O)c(O)c1` (stereo not drawn) [Iso, isoproterenol, reference compound], the “increase in IKs” value [1] is reported as 1.75 fold, the “decrease in APD90” value ([2]; 30 nM Iso alone) is reported as 12.9±2.9% and the activation at 0.03 µM ([2]; Cavia porcellus, Ventricular myocyte, 30 nM Iso alone, read-out: increase in APA50ms) is reported as 6.6 ± 2.9%.
Work on `Cc1cccc(N2C(=O)NC3(N=C(c4ccccc4)c4ccccc4N(C)C3=O)C2=O)c1` (stereo not drawn) [L6, 1-methyl-5-phenyl-1'-(3-tolyl)-spiro[3H-1,4-benzodiazepine-3,4'-imidazolidine]-2(1H),2',5'-trione] yielded an activation at 10 µM [3, 5] of 31 ± 9%.
`O=C1CC2(CCN(C(=O)Nc3ccccc3)CC2)Oc2ccccc21` [L7, N-phenyl-1'-(carboxamido)-spiro[2H-1-benzopyran-2,4'-piperidin]-4(3H)-one] was tested, and the “Agonist Effect - % Increase in IKs, Vt -10 mV” value ([3]; 1 μM) was “no change” and the activation at 1 µM [3, 6] was 111 ± 28%.
`Cc1cccc(NC(=O)N2CCC3(CC2)CC(=O)c2ccccc2O3)c1` [L8, N-(3-tolyl)-1'-(carboxamido)-spiro[2H-1-benzopyran-2,4'-piperidin]-4(3H)-one] was tested, and the “Agonist Effect - % Increase in IKs, Vt -10 mV” value ([3]; 10 μM) was “no change” and the activation at 10 µM [3, 5] was 65 ± 17%.
`CN1C(=O)[C@@H](Cc2c[nH]c3ccccc23)N=C(c2ccccc2F)c2ccccc21` [R-L3, (3-R)-1,3-dihydro-5-(2-fluorophenyl)-3-(1H-indol-3-ylmethyl)-1-methyl-2H-1,4-benzodiazepin-2-one] was tested, and the “net effect on rate of KvLQT1 activation” value [4] was “slow the rate of KvLQT1 activation”, the “shift in the voltage dependence of KvLQT1 activation” value [4] was -10 mV and the “effect on KvLQT1 current” value ([4]; 2 s pulses to -70 to +60 mV) was “increased KvLQT1”. For the same molecule, the “slope factor (k) of KvLQT1 activation” value ([4]; control 11 mV) was 13 mV, the “V1/2 of KvLQT1 activation” value ([4]; control -28 mV) was -40 mV and the “effect on rate of KvLQT1 deactivation” value ([4]; voltages negative to -40 mV) was “slowed the rate of KvLQT1 deactivation”. The fold induction at 0.03 µM ([3]; 30 nM, 3 s depolarizations to Vt -10 mV from Vh -50 mV, read-out: IKs increased by a factor) was 17 ± 5, the “V1/2 of IKs activation (isochronal, 7.5 s pulses)” value ([3]; 0.1 μM) was 3.0±0.8 mV and the activation at 0.1 µM ([3]; 0.1 μM, read-out: Agonist Effect - % Increase in IKs, Vt +50 mV) was 25 ± 6%. The activation at 0.1 µM ([3]; 0.1 μM, read-out: Agonist Effect - % Increase in IKs, Vt -10 mV) was 431 ± 123%, the “fast time constants of IKs activation” value ([3]; 1 μM) was “slightly, but not significantly, faster” and the “maximally activated IKs” value ([3]; 1 μM, Vt +60 mV, control 896±196 pA, not significantly increased) was 953±183 pA. For the same molecule, the “V1/2 of IKs activation (isochronal, 7.5 s pulses)” value ([3]; 1 μM) was -4.9±3.4 mV, the “shift of V1/2 of IKs activation” value ([3]; 1 μM, following pretreatment with 100 nM timolol) was -19 mV and the activation at 1 µM [3, 6] was 40 ± 12%. The “effect on time-dependent IKs at the end of 7.5 s pulses” value ([3]; 10 μM, Vh -50 mV) was “increased time-dependent IKs at the end of 7.5 s pulses to potentials <+10 mV, but decreased IKs at more positive potentials”, the “effect on slope factor k of IKs activation” value ([3]; 0.1 and 1 μM, control k 11.0±1.2 mV) was “not significantly changed; also recorded: had no effect on k” and the “fast and slow time constants of IKs deactivation” value ([3]; -60 to -10 mV following 3 s pre-pulse to +30 mV) was “significantly increased”. The “lowest concentration enhancing IKs” value ([3]; Vt -10 mV) was 30 nM, the “concentration of maximal effect on IKs” value ([3]; Vt -10 mV, 3 s pulses) was 1 µM and the “decrease in APD90” value ([2]; 1 μM R-L3 in the continued presence of 100 nM timolol) was 14.6±2.2%. The “decrease in APD90” value ([2]; 1 μM R-L3 in the presence of 30 nM Iso) was 26.9±1.4%, the “decrease in APD90” value ([2]; 1 μM, stimulation at 1 Hz) was 14.2±1.6% and the “decrease in APD90” value ([2]; 10 μM, stimulation at 1 Hz) was 13.8±4.0%. The “effect on APD” value ([2]; 0.1-1.0 μM, 1 Hz) was “concentration-dependent shortening of APD” and the “concentration at which shortening of APD was maximal” value ([2]; 1 Hz) was 1 µM.
Molecule `O=C1Nc2ccccc2C(c2ccccc2F)=N[C@@H]1Cc1c[nH]c2ccccc12` [R-L4, (3-R)-1,3-dihydro-5-(2-fluorophenyl)-3-(1H-indol-3-ylmethyl)-2H-1,4-benzodiazepin-2-one] has an activation at 1 µM [3, 6] of 44 ± 9%, an activation at 1 µM ([3]; 1 μM, read-out: Agonist Effect - % Increase in IKs, Vt -10 mV) of 27 ± 7% and an activation at 10 µM [3, 5] of 114 ± 13%. It also gave an activation at 10 µM [3, 7] of 153 ± 37%.
For `O=C1Nc2ccc(Cl)cc2C(c2ccccc2)=N[C@@H]1Cc1c[nH]c2ccccc12` [R-L5, (3-R)-7-chloro-1,3-dihydro-5-phenyl-3-(1H-indol-3-ylmethyl)-2H-1,4-benzodiazepin-2-one], the activation at 10 µM [3, 5] was 22 ± 6% and the activation at 10 µM [3, 7] was 22 ± 10%.
With `CN1C(=O)[C@H](Cc2c[nH]c3ccccc23)N=C(c2ccccc2F)c2ccccc21` [S-L3] the inhibition at 1 µM ([3]; 1 μM, end of a 1-s test pulse to +50 mV, read-out: block of IKs) was 14.8 ± 4.3%, the inhibition at 10 µM ([3]; 10 μM, end of a 1-s test pulse to +50 mV, read-out: block of IKs) was 68.8 ± 3.4% and the “effect on IKs” value ([3]; 1 to 10 μM, test potentials -10 to +50 mV) was “blocked IKs at all concentrations”.
In the case of `CC(C)(C)NC[C@H](O)COc1nsnc1N1CCOCC1` [timolol, reference compound], the “effect on AP configuration” value ([2]; 100 nM timolol) is reported as “did not alter AP configuration” and the “effect on the effects of 30 nM Iso on the action potential” value ([2]; 100 nM timolol) is reported as “prevented the effects of 30 nM Iso”.

— US6150357A, “Potassium channel agonists” (Merck & Co., Inc., priority 1999, dated 2000)
